From paper PMC5601738, “Facile total synthesis of lysicamine and the anticancer activities of the Ru^II, Rh^III, Mn^II and Zn^II complexes of lysicamine” (Oncotarget, 2017)
Values joined by “and” are separate entries in the source; they are usually repeats but may differ in a detail not shown here. Equal entries are not always repeated. Where two headings read alike, the source gives them in different places.

What was measured:
[1] = test system: HL-7702 normal liver cell; experiment: MTT assay, HL-7702 normal liver cell; assay type: cell-based; details: 48 h; for IC50: MTT, mean ± SD from five independent experiments
[2] = test system: NCI-H460; experiment: MTT assay, NCI-H460 cells; assay type: cell-based, human; details: 48 h; for IC50: MTT, mean ± SD from five independent experiments
[3] = test system: BEL-7404; experiment: MTT assay, BEL-7404 cells; assay type: cell-based, human; details: 48 h; for IC50: MTT, mean ± SD from five independent experiments
[4] = test system: HepG2 xenograft; experiment: HepG2 xenograft model
[5] = test system: HepG2; experiment: MTT assay, HepG2 cells; details: for IC50: read-out: IC50 HepG2
[6] = test system: T-24; experiment: MTT assay, T-24 cells; assay type: cell-based, human; details: 48 h; for IC50: MTT, mean ± SD from five independent experiments
[7] = test system: ct-DNA; experiment: CD absorption spectrometry assay with ct-DNA; assay type: binding; details: ct-DNA 1×10^−4 M, [DNA]/[compound] 10:0.5 to 10:2.0
[8] = test system: pBR322 plasmid DNA; experiment: Agarose gel electrophoresis assay with pBR322 plasmid DNA; assay type: biochemical; details: pBR322 0.5 μg/μL, TBE buffer pH=8.5, 10 to 100 μM
Procedure: The DNA cleavage activity of 2, 3 and LY were tested by agarose gel electrophoresis assay using pBR322 plasmid DNA (0.5 μg/μL) in TBE buffer (pH=8.5). […] In contrast, under the same experimental conditions, when the concentration of 2 increased from 10 μM to 50 μM, the mobility of supercoiled DNA (form I) was reduced, but the relaxed form (form II) was not observed. When the concentration of 2 increased further to 70 μM, the form II DNA appeared. Almost all supercoiled DNA (form I) changed to relaxed DNA (form II) when the concentration of 2 reached 90 and 100 μM.
RT-qPCR was performed. The threshold cycle (Ct) values approval no. SCXK 2014-0002 and SYXK 2014-0003), […]
were housed at a sterile environment with conditions of […]
than 3 days before used. Complexes and LYwere all […]
is limited in 1% in final working solutions. KM mice. The large concentration of 2 in 10% (v/v) […]
ct-DNA CD spectrum as control.
The HepG2 xenograft mice were induced by
37 °C in the dark for 4 h.
The percent weight loss or gain was calculated […]
imaging system under a UV-Vis transilluminator.. Percent tumour growth inhibition after initiation of treatment with 2 and cisplatin were calculated by TGI= […]
initial for control group).
Animals were supplied by Guangxi Medical
University Laboratory Animal Centre (Guangxi, China, […]

[9] = test system: HepG2 cells; experiment: Cell cycle analysis by flow cytometry; assay type: cell-based, human; details: HepG2, 24 h
[10] = metal salts 1× 10-4 mol/L, 48 h

Row | Structure (SMILES) | inhibitive ratio HL-7702 ([1]; 20 μmol/L, normal liver cell) | inhibitive ratio NCI-H460 ([2]; 20 μmol/L) [%] | inhibitive ratio BEL-7404 ([3]; 20 μmol/L) [%] | inhibitive ratio Hep-G2 ([5]; 20 μmol/L, 48 h) [%] | inhibitive ratio T-24 ([6]; 20 μmol/L) [%] | inhibitive ratio HL-7702 ([1]; metal salts 1× 10-4 mol/L) [%] | inhibitive ratio NCI-H460 ([2]; metal salts 1× 10-4 mol/L) [%] | inhibitive ratio BEL-7404 ([3]; metal salts 1× 10-4 mol/L) [%] | inhibitive ratio Hep-G2 [5, 10] [%] | inhibitive ratio T-24 ([6]; metal salts 1× 10-4 mol/L) [%] | further results
1 | N.N.[Cl][Pt][Cl] [Cisplatin, cisplatin, reference compound] | 68.95±1.42% and 68.9% | 53.88±1.29 | 55.15±1.18 | 60.63±0.99 | 47.58±2.05 |  |  |  |  |  | IC50 ([1]; normal liver cell): 15.7 ± 1.27 µM; IC50 [2]: 18.3 ± 1.02 µM; IC50 [3]: 12.4 ± 0.38 µM; BW% (body weight change) ([4]; 2.0 mg/kg per 2 days): -25.8%; loss in body weight ([4]; 2.0 mg/kg per 2 days): 25.8%; TGI ([4]; 2.0 mg/kg per 2 days i.p.): 83.16%; IC50 ([5]; MTT, 48 h, mean ± SD from five independent experiments): 18.5 ± 0.78 µM; IC50 [6]: 28.1 ± 1.88 µM
2 | COc1cc2ccnc3c2c(c1OC)-c1ccccc1C3=O [LY, lysicamine] | 45.49±0.78% and 45.5% | 52.85±0.32 | 32.27±1.73 | 53.13±1.19 | 42.40±2.14 |  |  |  |  |  | change of CD spectrum of ct-DNA / binding [7]: the binding was weak; IC50 ([1]; Homo sapiens, L02, normal liver cell): 29.3 ± 0.72 µM; IC50 ([2]; Homo sapiens, NCI-H460): 19.14 ± 0.18 µM; DNA cleavage activity on supercoiled pBR322 DNA [8]: did not change the supercoiled DNA and its migration rate; IC50 ([3]; Homo sapiens, BEL-7404): 47.5 ± 1.65 µM; IC50 ([5]; Homo sapiens, HepG2, 48 h): 23.9 ± 0.41 µM; effect on cell cycle progression [9]: only blocked the cell cycle in the G1 phase; IC50 ([6]; Homo sapiens, T-24): 34.5 ± 1.96 µM
3 | O.O.O.O.O.O.[Mn+2].[O-][Cl+3]([O-])([O-])[O-].[O-][Cl+3]([O-])([O-])[O-] [Mn(ClO4)2·6H2O, reference compound] |  |  |  |  |  | 23.06±1.64 | 30.12±0.46 | 25.84±1.36 | 18.52±0.67 | 24.08±1.86 | 
4 | O.O.O.[Cl][Rh]([Cl])[Cl] [RhCl3·3H2O, reference compound] |  |  |  |  |  | 30.12±1.57 | 25.41±1.25 | 35.29±0.97 | 24.02±1.02 | 27.09±1.11 | 
